Earlier results in patent EP3473244A1, “CONTROLLED RELEASE ORAL TAMSULOSIN HYDROCHLORIDE” (Veru Inc., priority 2017, dated 2019).

Conditions: reported value used to set PK sampling times

T ½: 5 h
SMILES: CCOc1ccccc1OCCN[C@H](C)Cc1ccc(OC)c(S(N)(=O)=O)c1 [Tamsulosin]
